Assay results: patent US20070142395A1, “Treatment of sexual dysfunction with 1-[3-[4-(3-chlorophenyl)-1-piperazinyl]propyl]-5-methoxy-3,4-dihydro-2(1H)-quinolone or salt thereof” (Vela Pharmaceuticals, Inc., priority 2005, published 2007)

Tested on: patients with MDD
Assay: CSFQ shift analysis (sexual dysfunction / no sexual dysfunction by threshold), same clinical study
Format: in vivo, Humans
Settings: shift baseline to Day 56, LOCF, 5 mg BID
Method: A double-blind, randomized, placebo-controlled, parallel-group study was performed to evaluate the efficacy, safety and tolerability of OPC-14523 in patients with MDD. The patients selected for participation in the trial had to meet DSM-IV-TR criteria for MDD (296.2x or 296.3x; diagnosis via MINI) and had had symptoms of depression for at least 2 months before the start of the double-blind treatment. Among other drugs prohibited during the study, patients were prohibited from taking drugs used to enhance sexual function, including, but not limited to, sildenafil, tadalafil and vardenafil, or taking psychopharmacologic drugs.
Each patient was expected to participate for up to 10 weeks. The 10 weeks included: i) a 4- to 10-day screening period, during which potential participants were administered placebo in a single-blind manner; ii) an 8-week double-blind treatment period; and iii) a 4- to 10- day post-treatment visit period. Baseline evaluations, including assessment of sexual function, were conducted on Day −1. The next day, Day 1, the double-blind medication was begun. All treatment was on an outpatient basis.
The dosages studied were 5 mg BID OPC-14523 (10 mg total daily dose of immediate release tablet of Example 1) and placebo. The drugs were taken after meals in the morning and in the evening, about 12 hours apart.
Data on sexual function were collected using the Changes in Sexual Function Questionnaire (CSFQ). The CSFQ is a 14-item self-report measure of sexual functioning vis-â-vis experiences of pleasure, desire, arousal, and orgasm, with a 5-point response option for each item. The 14-item validated CSFQ was developed from a questionnaire comprising 35 and 36 items for female and male respondents, respectively (Clayton et al., Psychopharmacol Bull. 33(4):731-45 (1997) and Clayton et al., Psychopharmacol Bull. 33(4):747-53 (1997), each incorporated herein by reference in its entirety). The CSFQ has also been independently validated (Bobes et al., J Sex Marital Ther. 26(2): 119-31(2000)). The 14-item CSFQ includes items 8, 11, 14, 19-24 from the interview version of the CSFQ (“CSFQ-I”); Clayton et al., Psychopharmacol Bull. 33(4):731-45 (1997)). The CSFQ differs for men and women, reflecting some variation in wording of items. Males were given the male clinical version, CSFQ-M-C, and women were given the female clinical version, CSFQ-F-C. CSFQ-F-C includes items 25, 27, 28, 30 and 31 from the questions for women on the CSFG-I. CSFQ-M-C includes items 28-32 from the questions for men on the CSFQ-I, as well as item 25 from the questions for women.
The 14-item CSFQ has subscales for sexual pleasure (1 item), desire/frequency (2 items), desire/interest (3 items), arousal (3 items), and orgasm (3 items). In addition, a 14-item total score may be calculated. Higher scores are indicative of more favorable sexual functioning. Threshold scores for total and sub-scales have been defined. A score below the threshold score indicates dysfunction.
The construction of shift tables is a routine analysis that is often carried out in the analysis of clinical trial data. For the data herein, the analysis was constructed by categorizing the subjects' scores at baseline and then separately at Day 56 according to having sexual dysfunction (SD) or no sexual dysfunction (NSD). These categories were defined by the threshold values specified in the CSFQ (see Table 4). The cross-classification of the baseline categories with the Day 56 categories results in a 2×2 table with the cells NSD/NSD, NSD/SD, SD/NSD, and SD/SD. Two categories represent the number and percent of subjects who stayed in the same category from baseline to Day 56 (NSD/NSD and SD/SD cells). The other two categories represent the number and percentage of subjects who shifted either for better (SD/NSD cell) or worse (NSD/SD cell). In the tables below, “remained low” refers to the SD/SD category. […]

COc1cccc2c1CCC(=O)N2CCCN1CCN(c2cccc(Cl)c2)CC1 [OPC-14523, 1-[3-[4-(3-chlorophenyl)-1-piperazinyl]propyl]-5-methoxy-3,4-dihydro-2(1H)-quinolone]
CSFQ Arousal/Excitement: Improved (Low→Normal), % (all patients (men and women)): 6% | CSFQ Arousal/Excitement: Remained Low, % (all patients (men and women)): 84% | CSFQ Arousal/Excitement: Remained Normal, % (all patients (men and women)): 7% | CSFQ Arousal/Excitement: Worsened (Normal→Low), % (all patients (men and women)): 3 (3%) | CSFQ Desire/Frequency: Improved (Low→Normal), % (all patients (men and women)): 13% | CSFQ Desire/Frequency: Remained Low, % (all patients (men and women)): 75% | CSFQ Desire/Frequency: Remained Normal, % (all patients (men and women)): 9% | CSFQ Desire/Frequency: Worsened (Normal→Low), % (all patients (men and women)): 3% | CSFQ Desire/Interest: Improved (Low→Normal), % (all patients (men and women)): 7% | CSFQ Desire/Interest: Remained Low, % (all patients (men and women)): 78% | CSFQ Desire/Interest: Remained Normal, % (all patients (men and women)): 12% | CSFQ Desire/Interest: Worsened (Normal→Low), % (all patients (men and women)): 3 (3%) | CSFQ Orgasm/Completion: Improved (Low→Normal), % (all patients (men and women)): 12% | CSFQ Orgasm/Completion: Remained Low, % (all patients (men and women)): 64% | CSFQ Orgasm/Completion: Remained Normal, % (all patients (men and women)): 17% | CSFQ Orgasm/Completion: Worsened (Normal→Low), % (all patients (men and women)): 7% | CSFQ Pleasure: Improved (Low→Normal), % (all patients (men and women)): 5% | CSFQ Pleasure: Remained Low, % (all patients (men and women)): 91% | CSFQ Pleasure: Remained Normal, % (all patients (men and women)): 3% | CSFQ Pleasure: Worsened (Normal→Low), % (all patients (men and women)): 0 (0%) | CSFQ Total Score: Improved (Low→Normal), % (all patients (men and women)): 16% | CSFQ Total Score: Remained Low, % (all patients (men and women)): 42% | CSFQ Total Score: Remained Normal, % (all patients (men and women)): 39% | CSFQ Total Score: Worsened (Normal→Low), % (all patients (men and women)): 3 (3%) | CSFQ Arousal/Excitement: Improved (Low→Normal), % (men only): 2% | CSFQ Arousal/Excitement: Remained Low, % (men only): 79% | CSFQ Arousal/Excitement: Remained Normal, % (men only): 15% | CSFQ Arousal/Excitement: Worsened (Normal→Low), % (men only): 4% | CSFQ Desire/Frequency: Improved (Low→Normal), % (men only): 13% | CSFQ Desire/Frequency: Remained Low, % (men only): 77% | CSFQ Desire/Frequency: Remained Normal, % (men only): 9% | CSFQ Desire/Frequency: Worsened (Normal→Low), % (men only): 2% | CSFQ Desire/Interest: Improved (Low→Normal), % (men only): 2% | CSFQ Desire/Interest: Remained Low, % (men only): 81% | CSFQ Desire/Interest: Remained Normal, % (men only): 17% | CSFQ Desire/Interest: Worsened (Normal→Low), % (men only): 0 (0%) | CSFQ Orgasm/Completion: Improved (Low→Normal), % (men only): 9% | CSFQ Orgasm/Completion: Remained Low, % (men only): 68% | CSFQ Orgasm/Completion: Remained Normal, % (men only): 15% | CSFQ Orgasm/Completion: Worsened (Normal→Low), % (men only): 9% | CSFQ Pleasure: Improved (Low→Normal), % (men only): 2% | CSFQ Pleasure: Remained Low, % (men only): 91% | CSFQ Pleasure: Remained Normal, % (men only): 6% | CSFQ Pleasure: Worsened (Normal→Low), % (men only): 0 (0%) | CSFQ Total Score: Improved (Low→Normal), % (men only): 15% | CSFQ Total Score: Remained Low, % (men only): 40% | CSFQ Total Score: Remained Normal, % (men only): 43% | CSFQ Total Score: Worsened (Normal→Low), % (men only): 2% | CSFQ Arousal/Excitement: Improved (Low→Normal), % (women only): 9% | CSFQ Arousal/Excitement: Remained Low, % (women only): 88% | CSFQ Arousal/Excitement: Remained Normal, % (women only): 1 (1%) | CSFQ Arousal/Excitement: Worsened (Normal→Low), % (women only): 1 (1%) | CSFQ Desire/Frequency: Improved (Low→Normal), % (women only): 13% | CSFQ Desire/Frequency: Remained Low, % (women only): 74% | CSFQ Desire/Frequency: Remained Normal, % (women only): 9% | CSFQ Desire/Frequency: Worsened (Normal→Low), % (women only): 4% | CSFQ Desire/Interest: Improved (Low→Normal), % (women only): 10% | CSFQ Desire/Interest: Remained Low, % (women only): 76% | CSFQ Desire/Interest: Remained Normal, % (women only): 9% | CSFQ Desire/Interest: Worsened (Normal→Low), % (women only): 4% | CSFQ Orgasm/Completion: Improved (Low→Normal), % (women only): 15% | CSFQ Orgasm/Completion: Remained Low, % (women only): 61% | CSFQ Orgasm/Completion: Remained Normal, % (women only): 18% | CSFQ Orgasm/Completion: Worsened (Normal→Low), % (women only): 6% | CSFQ Pleasure: Improved (Low→Normal), % (women only): 7% | CSFQ Pleasure: Remained Low, % (women only): 91% | CSFQ Pleasure: Remained Normal, % (women only): 1 (1%) | CSFQ Pleasure: Worsened (Normal→Low), % (women only): 0 (0%) | CSFQ Total Score: Improved (Low→Normal), % (women only): 16% | CSFQ Total Score: Remained Low, % (women only): 43% | CSFQ Total Score: Remained Normal, % (women only): 37% | CSFQ Total Score: Worsened (Normal→Low), % (women only): 3%
